Experiments:
Pmluc-N230S = assay: BL emission spectra of luciferase-luciferin reactions; format: biochemical, Pyrocoelia miyako; details: 100 mM HEPES pH 8.0, 25 °C
Method: were selected to investigate their BL emission spectra with luciferases including Fluc, SLR, Pmluc-WT, Pmluc-N230S using an integrating sphere-based multichannel spectrometer with a charge-coupled device (CCD) detector.
The reactions were initiated by mixing 25 µl of premixed solution of luciferases/D-LH 2 analogues with 125 µl of 3 mM ATP and 6 mM MgCl2 in 100 mM HEPES-NaOH (pH 8.0).

Fluc [1] = molecular target: T1, Fluc (Photinus pyralis, UniProt P08659); details: Fluc; cited from earlier work
Fluc [2] = molecular target: T1, Fluc; assay: Stability of BL signals (half-time of light emission); format: biochemical; details: compared to 2a
Method: 1.5 Bioluminescence characterizations
Reactions of luciferases, including Photinus pyralis luciferase (Fluc), Phrixothrix hirtus luciferase (SLR), Pyrearinus termitilluminans […]
mM D-LH 2 analogues, 3 mM ATP, 6 mM MgCl2, and 10 µM luciferase in 0.2 ml of 100 mM HEPES-NaOH pH 8.0. The bioluminescence (BL) emission characteristics were recorded using a microplate reader in a BL mode (Thermo Scientific, Varioskan, LUX multimode). A digital single-lens reflex (DSLR) camera (Nikon D80, CCD sensor) with a 30-second exposure period was used to capture the BL images. […]

T1 sequence (P08659 whole entry): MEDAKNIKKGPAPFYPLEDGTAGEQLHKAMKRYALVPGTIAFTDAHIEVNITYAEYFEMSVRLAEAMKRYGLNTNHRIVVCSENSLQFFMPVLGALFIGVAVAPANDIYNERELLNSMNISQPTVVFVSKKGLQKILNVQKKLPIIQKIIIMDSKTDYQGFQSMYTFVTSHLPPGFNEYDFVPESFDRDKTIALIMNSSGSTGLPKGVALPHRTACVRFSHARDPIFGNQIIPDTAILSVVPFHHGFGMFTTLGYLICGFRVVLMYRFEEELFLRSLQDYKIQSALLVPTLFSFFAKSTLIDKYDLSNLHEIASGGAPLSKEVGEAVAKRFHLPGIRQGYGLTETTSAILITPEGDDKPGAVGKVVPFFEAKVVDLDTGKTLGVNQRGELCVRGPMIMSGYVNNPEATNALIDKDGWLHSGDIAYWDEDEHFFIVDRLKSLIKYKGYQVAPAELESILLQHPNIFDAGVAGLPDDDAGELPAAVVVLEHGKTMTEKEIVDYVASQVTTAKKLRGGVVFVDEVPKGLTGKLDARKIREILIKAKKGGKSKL

| SMILES | Bioluminescence wavelength (BLλ) (Pmluc-N230S) [nm] | Quantum yield (Fluc [1]) [%] | BL half-life (t1/2) longer than that of 2a (Fluc [2]) |
| --- | --- | --- | --- |
| O=C(O)[C@H]1CSC(c2nc3ccc(O)cc3s2)=N1 [Compound 2a, D-luciferin, reference compound] | 614 | 41 |  |
| Cc1cc2nc(C3=N[C@@H](C(=O)O)CS3)sc2c(C)c1O [Compound 2c, 5’,7’-di-methyl-D-luciferin] |  |  | about 1.7 fold |

From paper PMC12668289 (RSC Chemical Biology, 2025)
